Patent publication US20020026034A1, “3-AMINOETHYL-N-AMIDINO-2,5-DIHYDROPYRROLE DERIVATIVES HAVING ARGININE MIMETIC PROPERTIES” (priority 1995, published 2002)

Columns and labels:
[1] = molecular target: T1, bovine pancreatic trypsin (Bos taurus, UniProt P00760); assay: Inhibition of trypsin; type: biochemical; details: measured as described for thrombin, Km=45 μM, read-out: inhibition constant Ki
T1 construct: purchased Sigma; host or cells: bovine pancreas
T1 sequence (P00760 24-246): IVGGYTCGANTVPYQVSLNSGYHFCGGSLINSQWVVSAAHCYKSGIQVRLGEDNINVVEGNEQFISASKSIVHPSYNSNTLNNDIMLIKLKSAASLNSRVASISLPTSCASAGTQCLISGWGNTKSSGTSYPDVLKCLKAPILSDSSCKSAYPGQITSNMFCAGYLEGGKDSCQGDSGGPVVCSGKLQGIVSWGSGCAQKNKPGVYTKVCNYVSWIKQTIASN
Procedure: 10 mg bovine pancreatic trypsin (Sigma) was dissolved in […] hydrochloric acid and stored in a refrigerator 20 μl thereof was admixed with 980 ul 1 mM hydrochloric acid. 25 μl thereof was used for each measurement. The measurement was carried out as described for thrombin. Km=45 μM.

human thrombin = molecular target: T2, human thrombin (Homo sapiens, UniProt P00734); assay: Thrombin inhibition, kinetic measurement with substrate S-2238; type: biochemical; details: pH 7 5, 25° C., substrate H-(D)-Phe-Pro-Arg-pNA
T2 construct: purchased Sigma
Procedure: The kinetic measurements were carried out in 0 1 M phosphate buffer which contained 0 2 M sodium chloride and 0 5 % polyethylene glycol 6000 at a pH=7 5 and 25° C. using the substrate H-(D)-Phe-Pro-Arg-pNA (S-2238 Kabi) and human thrombin (Sigma specific activity=2150 NIH-units/mg) in polystyrene semimicrocuvettes in a total volume of 1 ml
Since the measurement curves obtained in both experiments were linear and parallel, the active substance of formula (I) is a rapid thombin inhibitor. The inhibition constant Ki was determined as follows The substrate was added at concentrations of 100 μM. 50 μM. 30 μM, 20 μM and at each substrate concentration a measurement was carried out without inhibitor and three measurements were carried out in the presence of various concentrations of the inhibitor of formula (I). The reactions were started by addition of thrombin. The increase in absorbance at 405 nm caused by the formation of p-nitroanilide was monitored for a time period of 12 min. Measurement points (time versus absorbance) were transferred to a PC at intervals of 20 sec. […] From one measurement series (constant inhibitor concentration, variable substrate concentrations) Km′ and Vmax were determined by a non-linear fit to the equation [formula]
Finally Ki was determined from the total series of measurements by non-linear fit to the equation [formula]

[2] = molecular target: isolated activated GpIIb/IIIa receptor (Homo sapiens, UniProt P05106+P08514); assay: GpIIb/IIIa fibrinogen ELISA; details: fibrinogen binding to coated GpIIb/IIIa receptor; read-out: gpIIb/IIIa-Inhibition IC50
Sequence of isolated activated GpIIb/IIIa receptor (P08514 32-887 limits assumed): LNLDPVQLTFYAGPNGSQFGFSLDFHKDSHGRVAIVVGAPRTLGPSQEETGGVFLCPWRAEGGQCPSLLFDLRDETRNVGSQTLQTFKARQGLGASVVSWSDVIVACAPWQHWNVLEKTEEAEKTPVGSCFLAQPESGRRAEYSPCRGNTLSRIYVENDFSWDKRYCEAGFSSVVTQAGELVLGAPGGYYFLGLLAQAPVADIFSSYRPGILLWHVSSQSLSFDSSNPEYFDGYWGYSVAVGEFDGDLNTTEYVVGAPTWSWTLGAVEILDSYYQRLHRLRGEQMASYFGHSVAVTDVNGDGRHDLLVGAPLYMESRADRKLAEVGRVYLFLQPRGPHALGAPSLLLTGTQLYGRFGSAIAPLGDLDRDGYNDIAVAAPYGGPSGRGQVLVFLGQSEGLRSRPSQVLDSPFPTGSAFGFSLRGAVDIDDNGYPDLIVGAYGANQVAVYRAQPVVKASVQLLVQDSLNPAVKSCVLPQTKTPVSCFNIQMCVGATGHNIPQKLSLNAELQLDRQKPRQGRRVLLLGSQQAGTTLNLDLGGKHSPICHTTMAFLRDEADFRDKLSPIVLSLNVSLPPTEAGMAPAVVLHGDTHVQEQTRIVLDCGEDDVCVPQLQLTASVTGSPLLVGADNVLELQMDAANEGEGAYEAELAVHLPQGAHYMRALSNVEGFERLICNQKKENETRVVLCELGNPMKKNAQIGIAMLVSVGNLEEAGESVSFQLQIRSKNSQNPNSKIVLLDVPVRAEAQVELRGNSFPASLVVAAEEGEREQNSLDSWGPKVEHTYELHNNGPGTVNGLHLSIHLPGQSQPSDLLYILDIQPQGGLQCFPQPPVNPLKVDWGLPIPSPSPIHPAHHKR
Sequence of isolated activated GpIIb/IIIa receptor (P08514 891-1039 partner limits assumed): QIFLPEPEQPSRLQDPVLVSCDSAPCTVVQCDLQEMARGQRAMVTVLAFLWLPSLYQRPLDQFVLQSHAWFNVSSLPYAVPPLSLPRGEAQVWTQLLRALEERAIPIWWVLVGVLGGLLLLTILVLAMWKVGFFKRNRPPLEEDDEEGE
Sequence of isolated activated GpIIb/IIIa receptor (P05106 27-788): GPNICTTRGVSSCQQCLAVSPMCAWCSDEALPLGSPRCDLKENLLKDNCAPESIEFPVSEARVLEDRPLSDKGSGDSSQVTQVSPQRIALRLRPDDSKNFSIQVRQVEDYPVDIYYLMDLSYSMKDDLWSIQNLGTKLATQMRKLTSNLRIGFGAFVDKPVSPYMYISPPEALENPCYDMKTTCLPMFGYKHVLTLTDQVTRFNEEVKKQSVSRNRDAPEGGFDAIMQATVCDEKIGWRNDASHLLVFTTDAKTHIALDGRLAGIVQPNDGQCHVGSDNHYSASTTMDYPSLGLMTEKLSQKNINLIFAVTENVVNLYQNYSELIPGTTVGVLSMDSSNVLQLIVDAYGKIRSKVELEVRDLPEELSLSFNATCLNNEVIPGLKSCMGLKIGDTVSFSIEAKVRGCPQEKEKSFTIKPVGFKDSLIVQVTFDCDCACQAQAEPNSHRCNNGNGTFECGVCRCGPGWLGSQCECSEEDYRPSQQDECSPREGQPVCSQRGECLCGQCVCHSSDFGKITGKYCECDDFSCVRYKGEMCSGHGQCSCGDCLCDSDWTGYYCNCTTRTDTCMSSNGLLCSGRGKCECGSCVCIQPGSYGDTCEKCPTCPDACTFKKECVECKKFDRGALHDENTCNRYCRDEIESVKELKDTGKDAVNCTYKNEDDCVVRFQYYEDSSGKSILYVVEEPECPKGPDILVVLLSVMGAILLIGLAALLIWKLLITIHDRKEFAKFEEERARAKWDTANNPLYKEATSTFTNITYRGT
Procedure: The GpIlb/Illa fibrinogen Elisa is a modification of assays which are described in the following literature: Nachman, R. L. & Leung, L. L. K. (1982): J. Clin. Invest. 69: 263-269 and Wright, P. S. et al. (1993): Biochem. J. 293:263-267.
Microtitre plates were coated overnight with 2 μg/ml isolated activated GpIIb/IIIa receptor. After unbound receptor had been removed by washing several times the surface of the plates is blocked with 1% casein and it is washed again. The test substance is added at the required concentrations and the plates are incubated for 10 minutes while shaking. The natural ligand of the gpIIb/IIIa receptor, fibrinogen, is added. After incubating for 1 hour unbound fibrinogen is removed by washing several times and the bound fibrinogen is determined by means of a peroxidase-conjugated, anti-fibrinogen monoclonal antibody by measuring the optical density at 405 nm in an ELISA instrument. The inhibition of a fibrinogen-GpIIb/IIIa interaction results in a low optical density. The IC50 value was determined by a concentration/effect curve.

horse thrombin = assay: Thrombin time (citrate plasma, sphere coagulometer); type: biochemical; details: control thrombin time ca 24 seconds
Procedure: A common test in clinical coagulation diagnostics is the thrombin time. This parameter detects the action of thrombin on fibrinogen and the formation of blood clots. Inhibitors of thrombin result in an increased thrombin time
In order to obtain plasma 9 parts fresh blood from healthy donors are mixed with one part sodium citrate solution (0 11 mol/l) and centrifuged at ca 3000 rpm for 10 min at room temperature, The plasma was removed by pipette and can be stored for ca 8 h at room temperature.
200 μl citrate plasma was incubated for 2 min at 37° C. in a sphere coagulometer (KC10 from the Amelung-Company). 10 μl dimethylsulfoxide (DMSO) or a solution of the active substance in DMSO was added to 190 μl preheated thrombin reagent (Boehringer Mannheim, GmbH. contains ca. 3 U/ml horse thrombin and […]) A stopwatch was started when this 200 μl solution was added to the plasma and the time point at which coagulation starts was determined In the control measurements the thrombin time was ca 24 seconds and was increased by the compound of example 3 depending on the concentration (test concentration/increase of thrombin time 5 μM>300*sec: 0 5 μM/96 sec. 0 05 μM/9 sec) [* the experiment was stopped after 5 minutes]

`N=C(N)N1CC=C(CCNC(=O)[C@@H]2C[C@@H]3CC[C@@H](O)C[C@@H]3N2C(=O)[C@@H](Cc2ccccc2)NC(=O)[C@H](O)Cc2ccccc2)C1` [Example 1, D-Pla-D-Phe-L-Choi-Adc] showed a Ki [1] of 0.1 µM.

In the case of `CN[C@H](Cc1ccccc1)C(=O)N1CCC[C@H]1C(=O)NCCC1=CCN(C(=N)N)C1` [Example 4], the “thrombin inhibition (in words)” value (human thrombin) is reported as “inhibits thrombin”.

Work on `N=C(N)N1CC=C(CC(N)C(=O)NCC(=O)N[C@@H](CC(=O)O)C(=O)N[C@@H](Cc2ccccc2)C(N)=O)C1` (stereo partly drawn) [Example 11, Ada-Gly-Asp-Phe-NH2] yielded an IC50 [2] of 12.8 µM.

“HOOC—CH2-D-Cha-(N-cyclopentyl)-Gly-Adc [Example 3]” was tested, and the “increase of thrombin time” value (horse thrombin; test concentration 0 05 μM) was 9 s, the “increase of thrombin time” value (horse thrombin; test concentration 0 5 μM) was 96 s and the “increase of thrombin time” value (horse thrombin; test concentration 5 μM, experiment stopped after 5 minutes) was over 300 s.
